Converted amounts (≈) assume the structure as drawn. Like-named read-outs stand apart in the source and are kept apart here. Positions of bridges follow the written chain, without caps; N, C: chain ends. Non-standard residues stand in square brackets, D forms with d. Residues, ends and D or L forms follow the SMILES beside them. Phe(4-tBu) = CC(C)(C)c1ccc(C[C@H](N)C(=O)O)cc1; S5 = C=CCCC[C@](C)(N)C(=O)O; Orn = NCCC[C@H](N)C(=O)O; Dap = NC[C@H](N)C(=O)O
What was measured:
A. baumannii = format: cell-based, Acinetobacter baumannii
How it was run: (§1)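 MIC is the minimum StAMP concentration showing no visible growth after 20-24 h incubation at 37° C. Serially diluted peptides met bacteria regrown 3-4 h after overnight culture, at 5×10^5 CFU/ml final, in Mueller-Hinton broth or its cation-adjusted form, per a modified CLSI microdilution.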

in vitro [1] = format: cell-based; conditions: human
How it was run: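 Cytotoxicity read by CellTiter-Glo luminescence after 48 h at 37 °C exposure to serially diluted StAMPs or vehicle. HepG2 cells were grown in EMEM plus 10% FBS and given 4 h to attach before dosing; peptides came from a 5 mg/mL aqueous stock.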

E. coli = format: cell-based, Escherichia coli
How it was run: as §1

K. pneumoniae = format: cell-based, Klebsiella pneumoniae
How it was run: as §1

in vitro [2] = format: cell-based; conditions: human; remark: listed apart in the source
How it was run: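 LDH release (absorbance at 490 nm) measured in the media of cells treated with serially diluted StAMPs or vehicle at 37 °C: 90 min for renal RPTEC, 48 h for liver HepG2. Cells were seeded overnight beforehand and media refreshed before dosing.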

S. aureus = format: cell-based, Staphylococcus aureus
How it was run: as §1

P. aeruginosa = format: cell-based, Pseudomonas aeruginosa
How it was run: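 MIC taken as lowest peptide concentration with no visible growth after 20-24 h at 37 °C. Peptide serial dilutions from water stocks met P. aeruginosa inoculum (5×10^5 CFU/ml final) in MHB or MHB II, per a CLSI-adapted microbroth protocol.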

[3] = Inhibitory Concentration at 50% Cytotoxicity (IC50) Human Liver Cells (HepG2)

Row | SMILES | Minimum Inhibitory Concentration (MIC) A. baumannii (A. baumannii) [µg/mL] | IC50 at 48 hours (in vitro [1]; [3]) [µg/mL] | Minimum Inhibitory Concentration (MIC) E. coli (E. coli) [µg/mL] | Minimum Inhibitory Concentration (MIC) K. pneumoniae (K. pneumoniae) [µg/mL] | IC50 at 90 min (in vitro [2]) [µg/mL] | Minimum Inhibitory Concentration (MIC) S. aureus (S. aureus) [µg/mL] | Minimum Inhibitory Concentration (MIC) P. aeruginosa (P. aeruginosa) [µg/mL] | IC50 at 48 hours (in vitro [1]; 48 hours of incubation, read-out: Inhibitory Concentration at 50% Cytotoxicity (IC50) Human Liver Cells (HepG2)) [µg/mL] | IC50 at 90 min (in vitro [2]; 90 minutes of incubation, read-out: Inhibitory Concentration at 50% Cytotoxicity (IC50) Human Renal Proximal Tubule Epithelial Cells (RPTEC)) [µg/mL]
1 | CC(C)[C@@H]1NC(=O)[C@@](C)(NC(=O)[C@H](C)NC(=O)[C@H](CCCN)NC(=O)CNC(=O)[C@H](Cc2ccccc2)NC(=O)[C@H](CCCN)NC(=O)[C@H](CCCN)NC(=O)[C@H](CCCN)NC(=O)[C@H](CCCN)NC(=O)[C@H](CCCN)NC(=O)[C@]2(C)CCCC=CCCC[C@](C)(NC(=O)CN)C(=O)NCC(=O)N[C@@H](CCCN)C(=O)N[C@@H](Cc3ccccc3)C(=O)N2)CCCC=CCCC[C@@](C)(C(=O)N[C@@H](C)C(=O)N[C@@H](CCCN)C(=O)N[C@@H](CCCN)C(N)=O)NC(=O)[C@H](CCC(=O)O)NC(=O)CNC1=O [compound 24] (H-G[S5]G[Orn]F[S5][Orn][Orn][Orn][Orn][Orn]FG[Orn]A[S5]VGE[S5]A[Orn][Orn]-NH2; staple 2-6, 16-20) | 2 | 44 (≈ 18 µM) | 4 | 32 | 100 (≈ 41 µM) | 64 | 2 | – | –
2 | CC(C)[C@@H]1NC(=O)[C@@](C)(NC(=O)[C@H](C)NC(=O)[C@H](CN)NC(=O)CNC(=O)[C@H](Cc2ccccc2)NC(=O)[C@H](CN)NC(=O)[C@H](CN)NC(=O)[C@H](CN)NC(=O)[C@H](CN)NC(=O)[C@H](CN)NC(=O)[C@]2(C)CCCC=CCCC[C@](C)(NC(=O)CN)C(=O)NCC(=O)N[C@@H](CN)C(=O)N[C@@H](Cc3ccccc3)C(=O)N2)CCCC=CCCC[C@@](C)(C(=O)N[C@@H](C)C(=O)N[C@@H](CN)C(=O)N[C@@H](CN)C(N)=O)NC(=O)[C@H](CCC(=O)O)NC(=O)CNC1=O [compound 25] (H-G[S5]G[Dap]F[S5][Dap][Dap][Dap][Dap][Dap]FG[Dap]A[S5]VGE[S5]A[Dap][Dap]-NH2; staple 2-6, 16-20) | 32 | > 200 | 4 | 16 | > 800 | >64 | 4 | – | –
3 | CC(C)[C@@H]1NC(=O)[C@@](C)(NC(=O)[C@H](C)NC(=O)[C@H](CCCCN)NC(=O)CNC(=O)[C@H](Cc2ccccc2)NC(=O)[C@H](CCCCN)NC(=O)[C@H](CCCCN)NC(=O)[C@H](CCCCN)NC(=O)[C@H](CCCCN)NC(=O)[C@H](CCCCN)NC(=O)[C@]2(C)CCCC=CCCC[C@](C)(NC(=O)CN)C(=O)NCC(=O)N[C@@H](CCCCN)C(=O)N[C@@H](Cc3ccccc3)C(=O)N2)CCCC=CCCC[C@@](C)(C(=O)N[C@@H](C)C(=O)N[C@@H](CCCCN)C(=O)N[C@@H](CCCCN)C(=O)NCC(=O)NCC(=O)N[C@@H](CCC(=O)O)C(N)=O)NC(=O)[C@H](CCC(=O)O)NC(=O)CNC1=O [compound 26] (H-G[S5]GKF[S5]KKKKKFGKA[S5]VGE[S5]AKKGGE-NH2; staple 2-6, 16-20) | 4 | 354 (≈ 126 µM) | 4 | 32 | 366 (≈ 130 µM) | >64 | 4 | – | –
4 | CC(C)[C@@H]1NC(=O)[C@@](C)(NC(=O)[C@H](C)NC(=O)[C@H](CCCCN)NC(=O)CNC(=O)[C@H](Cc2ccccc2)NC(=O)[C@H](CCCCN)NC(=O)[C@H](CCCCN)NC(=O)[C@H](CCCCN)NC(=O)[C@H](CCCCN)NC(=O)[C@H](CCCCN)NC(=O)[C@]2(C)CCCC=CCCC[C@](C)(NC(=O)CN)C(=O)NCC(=O)N[C@@H](CCCCN)C(=O)N[C@@H](Cc3ccccc3)C(=O)N2)CCCC=CCCC[C@@](C)(C(=O)N[C@@H](CCCCN)C(N)=O)NC(=O)[C@H](CCC(=O)O)NC(=O)CNC1=O [compound 27] (H-G[S5]GKF[S5]KKKKKFGKA[S5]VGE[S5]K-NH2; staple 2-6, 16-20) | 4 | 117 (≈ 49.5 µM) | 4 | 4 | 100 (≈ 42.3 µM) | >64 | 4 | – | –
5 | CC(C)[C@@H]1NC(=O)[C@H](C(C)C)NC(=O)[C@@](C)(NC(=O)[C@H](C)NC(=O)[C@H](CCCCN)NC(=O)CNC(=O)[C@H](Cc2ccc(C(C)(C)C)cc2)NC(=O)[C@H](CCCCN)NC(=O)[C@H](CCCCN)NC(=O)[C@H](CCCCN)NC(=O)[C@H](CCCCN)NC(=O)[C@H](Cc2c[nH]cn2)NC(=O)[C@]2(C)CCCC=CCCC[C@](C)(NC(=O)CN)C(=O)NCC(=O)N[C@@H](CCCCN)C(=O)N[C@@H](Cc3ccc(C(C)(C)C)cc3)C(=O)N2)CCCC=CCCC[C@@](C)(C(=O)N[C@@H](C)C(=O)N[C@@H](CCCCN)C(=O)N[C@@H](CCCCN)C(N)=O)NC(=O)[C@H](CCC(=O)O)NC1=O [compound 31] (H-G[S5]GK[Phe(4-tBu)][S5]HKKKK[Phe(4-tBu)]GKA[S5]VVE[S5]AKK-NH2; staple 2-6, 16-20) | 4 | 101 (≈ 37 µM) | 4 | 8 | 9 (≈ 3.3 µM) | 16 | 8 | – | –
6 | CC(C)[C@@H]1NC(=O)[C@H](C(C)C)NC(=O)[C@@](C)(NC(=O)[C@H](C)NC(=O)[C@H](CCCCN)NC(=O)CNC(=O)[C@H](Cc2ccccc2)NC(=O)[C@H](CCCCN)NC(=O)[C@H](CCCCN)NC(=O)[C@H](CCCCN)NC(=O)[C@H](CCCCN)NC(=O)[C@H](CCCCN)NC(=O)[C@]2(C)CCCC=CCCC[C@](C)(NC(=O)CN)C(=O)NCC(=O)N[C@@H](CCCCN)C(=O)N[C@@H](Cc3ccccc3)C(=O)N2)CCCC=CCCC[C@@](C)(C(=O)N[C@@H](C)C(=O)N[C@@H](CCCCN)C(=O)N[C@@H](CCCCN)C(=O)NCC(=O)NCC(=O)N[C@@H](CCC(=O)O)C(N)=O)NC(=O)[C@H](CCC(=O)O)NC1=O [compound 32] (H-G[S5]GKF[S5]KKKKKFGKA[S5]VVE[S5]AKKGGE-NH2; staple 2-6, 16-20) | 4 | > 200 | 4 | 8 | ~200 (≈ 70.2 µM) | >64 | 4 | – | –
7 | CC(C)[C@@H]1NC(=O)[C@@](C)(NC(=O)[C@H](C)NC(=O)[C@H](CCCCN)NC(=O)CNC(=O)[C@H](Cc2ccccc2)NC(=O)[C@H](CCCCN)NC(=O)[C@H](CCCCN)NC(=O)[C@H](CCCCN)NC(=O)[C@H](CCCCN)NC(=O)[C@H](CCCCN)NC(=O)[C@]2(C)CCCC=CCCC[C@](C)(NC(=O)CN)C(=O)NCC(=O)N[C@@H](CCCCN)C(=O)N[C@@H](Cc3ccccc3)C(=O)N2)CCCC=CCCC[C@@](C)(C(=O)N[C@@H](C)C(=O)N[C@@H](CCCCN)C(=O)N[C@@H](CCCCN)C(=O)NCC(=O)NCC(=O)N[C@@H](CCC(=O)O)C(N)=O)NC(=O)[C@H](CCC(=O)O)NC(=O)[C@H](Cc2ccccc2)NC1=O [compound 33] (H-G[S5]GKF[S5]KKKKKFGKA[S5]VFE[S5]AKKGGE-NH2; staple 2-6, 16-20) | 2 | – | 2 | 4 | – | >64 | 4 | > 200 | ~200 (≈ 69 µM)

Source: patent US20240174723A1, “STAPLED ANTIMICROBIAL PEPTIDES (STAMPS) AND USES THEREOF” (Lytica Therapeutics, Inc., priority 2021, published 2024)
